From patent US9499494B2, “Pyrimidine-2,4,6-triones for use in the treatment of amyotrophic lateral sclerosis” (Northwestern University, priority 2009, dated 2016)
Where a SMILES comes first, the peptide text is derived from it. The star is where a group is joined. Cbz = O=C(OCc1ccccc1)*

Key:
Assay type in all cases: cell-based
[1] = test system: PC12 cells that express mutant G93A SOD1 as a YFP fusion protein; assay: high throughput cytotoxicity protection assay; details: for EC50: Rattus norvegicus, PC-12, Table 1, fluorinated PYT compounds
Excerpt: Cultured cells are utilized to conduct high throughput assays for compounds that protect against mutant SOD1-induced cytotoxicity. Two assays are used: first, in the cytotoxicity protection assay, compounds are screened for their ability to protect cells from the cytotoxic effects of aggregated mutant SOD1, irrespective of mechanism of drug action. Second, in the protein aggregation assay, compounds are screened for their ability to reduce aggregation of mutant SOD1. The high throughput cytotoxicity protection assay is the primary screen and compounds active in the primary screen (and their analogs) move forward into the secondary screen for protein aggregation.
(§1) The high throughput cytotoxicity protection assay was carried out in PC12 cells that express mutant G93A SOD1 as a YFP fusion protein from a doxycycline-inducible promoter (Matsumoto et al., J. Cell. Biol. 2005, 171, 75). […] This idea was tested by examining the sensitivity of PC12 cells to SOD1 aggregates in the presence and absence of proteasome inhibitor MG132. PC12 cells expressing no SOD1, wild type SOD1, G85R SOD1 or G93A SOD1 were grown with or without MG132 (FIG. 1). […] In these cells, protein aggregation was detected after 24 h and loss of cell viability was detected at approximately 48 h. […] The ability of protein aggregates to induce cell death was examined by treating G93A SOD1-expressing cells with MG132 for 24 h, removing the MG132 by washing and assaying cell viability after another 24 h. Because the loss of cell viability was similar following MG132 removal (FIG. 1, part C), it is likely that mutant SOD1 aggregates contribute directly to cytotoxicity in PC12 cells.
(§2) PC12 cells expressing G93A SOD1 were treated with 100 nM MG132 with or without co-treatment with geldanamycin or radicicol. […] Statistical analysis of the data produced a Z′ value of 0.55, which would predict good performance as a positive control in a high throughput screen (Zhang et al. J. Biomol. Screen 1999, 4(2), 67-73).

[2] = test system: PC12 cells expressing G85R SOD1; assay: mutant SOD1 direct protein aggregation assay
Excerpt: Compounds that are active in the above assay could theoretically protect against mutant SOD1-induced cytotoxicity through a number of mechanisms, including the following: 1) Compounds could nonspecifically block or reverse protein aggregation via chaperone induction, as observed for radicicol and geldanamycin 2) Compounds could block or reverse the aggregation of a specific aggregated protein form 3) Compounds could interfere with an event downstream of protein aggregation that plays a critical role in mutant SOD1-induced cytotoxicity (e.g., proteasome function). 4) Compounds could act directly on SOD1 in a manner that prevents mutant SOD1 aggregation. These possibilities were tested using an assay that directly measures protein aggregation. In addition, unlike the high throughput cytotoxicity protection assay, the protein aggregation assay is based on G85R SOD1; this broadens the scope of the screening strategy, and should eliminate compounds with highly specific activity (i.e., G93A SOD1 limited) against protein aggregation.
In PC12 cells that express wild-type SOD1, SOD1 was diffusely localized throughout the cell (Matsumoto et al. J. Cell. Biol 2005, 171(1), 75-85). […]
To allow this assay to be used in a high-throughput manner, a Cellomics Arrayscan® high content microscopy system was used for screening and quantification. […]

[3] = test system: PC12 cells expressing G93A mutant SOD1; assay: mutant SOD1 protein aggregation in G93A cells
Protocol: as §2
In PC12 cells that express wild-type SOD1, SOD1 was diffusely localized throughout the cell (Matsumoto et al. J. Cell. Biol 2005, 171(1), 75-85). […] Therefore, these effects are likely to be due to MG132-induced proteasome inhibition, and not due to an off-target effect of MG132.
The identification of a positive control is a crucial step in assay development. Thus, PC12 cells expressing G85R or G93A mutant SOD1 were treated with MG132 to induce protein aggregation, and then co-treated with candidate chemical suppressors of protein aggregation. […] Both compounds induce heat shock transcription factor HSF-1, which in turn induces the heat shock response (FIG. 4). Treatment with radicicol reduced the proportion of cells with aggregates from 75% to 25%, a sufficient difference to allow visual scoring for compounds with efficacy equal to or greater than radicicol.

[4] = test system: PC12 cells expressing G93A SOD1; assay: sensitivity of PC12 cells to proteasome inhibitor (cell viability)
Protocol: as §1

[5] = test system: PC12 cells expressing no SOD1, wild type SOD1 and G85R SOD1; assay: as above; details: Rattus norvegicus, PC-12
Protocol: as §1

[6] = G93A SOD1 cells treated with 100 nM MG132, co-treatment

## O=C1CC(=O)N(CC(F)(F)c2ccc(C(F)(F)F)cc2)C(=O)N1CC(F)(F)c1ccc(C(F)(F)F)cc1
[1]
  EC50: 2000 to 8000 nM

## C[C@@H]1C[C@H]2O[C@@H]2/C=C\C=C\C(=O)Cc2c(Cl)c(O)cc(O)c2C(=O)O1 [radicicol]
[1]; [6]
  cell viability: increased cell viability in a dose-dependent manner
[2]; PC12 cells expressing G85R or G93A mutant SOD1, MG132-treated, 75% without co-treatment
  proportion of cells with aggregates after treatment: 25%
[3]; [6]
  formation of protein aggregates: reduced formation of protein aggregates

## O=C1CC(=O)N(CC(F)(F)c2ccc(Cl)c(Cl)c2)C(=O)N1CC(F)(F)c1ccc(Cl)c(Cl)c1
[1]
  EC50: 2000 to 8000 nM

## CC(C)C[C@@H](C=O)NC(=O)[C@H](CC(C)C)NC(=O)[C@H](CC(C)C)NC(=O)OCc1ccccc1 [MG132] (Cbz-Leu-Leu-Leu-aldehyde)
[4]; G93A SOD1 cells
  fold more sensitive than cells expressing no SOD1, wild type SOD1 or G85R SOD1: approximately 5 fold
[4]; Rattus norvegicus, PC-12, read-out: IC50 (cell viability)
  IC50: ~75 nM
[5]
  IC50: ~400 nM
[2]; cells expressing G85R SOD1 treated with MG132
  cells containing protein aggregates: up to 75%
[3]; cells expressing G93A mutant SOD1 following treatment with MG132
  cells with protein aggregates: ~75%

## O=C1CC(=O)N(CC(F)(F)c2ccc(Cl)cc2)C(=O)N1CC(F)(F)c1ccc(Cl)cc1
[1]
  EC50: 2000 to 8000 nM

## O=C1CC(=O)N(CC(F)(F)c2ccc(F)c(F)c2)C(=O)N1CC(F)(F)c1ccc(F)c(F)c1
[1]
  EC50: 2000 to 8000 nM

## CC(C)C[C@H](NC(=O)[C@H](Cc1ccccc1)NC(=O)c1cnccn1)B(O)O [bortezomib]
[4]
  sensitivity of PC12 cells to proteasome inhibition compared with MG132: Qualitatively similar results
